For orientation: IC50 means the point on the concentration scale where inhibition reaches its midpoint.

From patent publication US11992489B2, “Substituted tetrahydroquinoline compounds as indoleamine 2,3-dioxygenase inhibitors” (Merck Sharp & Dohme LLC, priority 2018, dated 2024) come the findings set out here.

Structures are written as SMILES.

Sequence of IDO1 (P14902 whole entry): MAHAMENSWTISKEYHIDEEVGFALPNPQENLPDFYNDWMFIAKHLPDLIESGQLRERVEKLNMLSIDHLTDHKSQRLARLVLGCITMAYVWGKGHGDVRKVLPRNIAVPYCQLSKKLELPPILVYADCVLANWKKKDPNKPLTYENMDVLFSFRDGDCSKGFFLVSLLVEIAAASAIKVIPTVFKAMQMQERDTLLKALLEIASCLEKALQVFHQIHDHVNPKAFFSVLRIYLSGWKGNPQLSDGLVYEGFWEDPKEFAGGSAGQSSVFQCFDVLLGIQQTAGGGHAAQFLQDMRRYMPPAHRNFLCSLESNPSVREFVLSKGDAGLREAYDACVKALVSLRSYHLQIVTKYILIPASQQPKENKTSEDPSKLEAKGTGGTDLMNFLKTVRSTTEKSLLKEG

The target of this test is IDO1 (Homo sapiens, UniProt P14902). The experiment in a line: IDO1 cellular assay in HeLa cells stimulated with IFNγ. It is filed as cell-based. Conditions: IFNγ 100 ng/mL, 300 uM L-tryptophan, about 48 hours, fluorescence readout, read-out: HeLa Cell Potency, IC50. As for the experimental part:
Biological Assays IDO1 Cellular Assay in HeLa Cells Stimulated with IFNγ
HeLa cells were cultured in complete HeLa culture medium (90% EMEM, 10% heat-inactivated fetal bovine serum) and expanded to about 1×10^9 cells. The cells were then collected and frozen down at 1×10^7 cells/vial in 1 mL frozen medium (90% complete HeLa culture medium, 10% DMSO).
Compounds to be tested were serially diluted in ten 3-fold steps in DMSO starting from 10 mM DMSO stocks in Echo low volume plate(s). Compound dilutions or DMSO alone were then dispensed from the dilution plate(s) into Greiner black 384-well assay plate(s) (catalog #781086, 50 nL/well) using an Echo 550 acoustic liquid handler (Labcyte).
Frozen HeLa cells were thawed and transferred into HeLa assay medium (99% complete HeLa culture medium, 1% Pen/Strep) with 20 mL medium/vial of cells. The cells were spun down at 250 g in a table top centrifuge for 5 min and suspended in same volume of HeLa assay medium. The cells were then counted and adjusted to a density of 2×10^5 cells/mL in HeLa assay medium. Sterile L-tryptophan were added to the cells with final concentration of 300 uM L-tryptophan. A small aliquot (2 mL/plate) of HeLa cells were set aside and were not treated with IFNγ, to serve as the Max-E control.
HeLa cells with and without IFNγ were dispensed to the respective wells of 384-well assay plates containing the compounds. The plates were incubated for about 48 hours at a 37° C., 5% CO2 incubator. Afterwards, 12 μL of 0.5 M methyl isonipecotate in dimethyl sulfoxide were added into each well and the plates were sealed and incubated at 37° C. without CO2 overnight. The plates were centrifuged for 1 min at 200×g. The resulting fluorescence was measured in a Spectramax plate reader (Molecular Devices) with a 400 nm excitation filter and a 510 nm emission filter.
The fluorescence intensity of each well was corrected for the background observed in wells with non-IFNγ-treated cells and was expressed as a fraction of the intensity observed in wells of IFNγ-treated cells and DMSO only. Potencies were calculated by linear least squares fit to the four parameter logistic IC50 equation.
On to `CN(C)c1ncc(OC2CCCc3nc(C4(NC(=O)c5ccc(F)cc5)CC4)ccc32)cn1` (single isomer, unassigned) [Example 4, N-(1-(5-((2-(dimethylamino)pyrimidin-5-yl)oxy)-5,6,7,8-tetrahydroquinolin-2-yl)cyclopropyl)-4-fluorobenzamide], for which the IC50 was 9.34 nM.

For `O=C(NC1(c2ccc3c(n2)CCCC3OCC2CC2)CC1)c1ccc(F)cc1` (single isomer, unassigned) [Example 19, N-(1-(5-(cyclopropylmethoxy)-5,6,7,8-tetrahydroquinolin-2-yl)cyclopropyl)-4-fluorobenzamide], the IC50 came out at 65.9 nM.

Consider `O=C(NC1(c2ccc3c(n2)CCCC3OCC2CC2)CC1)c1ccc(F)cc1` (single isomer, unassigned) [Example 20, N-(1-(5-(cyclopropylmethoxy)-5,6,7,8-tetrahydroquinolin-2-yl)cyclopropyl)-4-fluorobenzamide], for which the IC50 was 95.4 nM.

As for `Cc1nccc([C@@H]2CCCc3nc(C4(NC(=O)c5ccc(F)cc5)CC4)ccc32)n1` (single isomer, unassigned) [Example 22], the IC50 amounted to 41.3 nM.

On to `Cc1nccc([C@H]2CCCc3nc(C4(NC(=O)c5ccc(F)cc5)CC4)ccc32)n1` (single isomer, unassigned) [Example 23], for which the IC50 was 42.3 nM.

Regarding `O=C(NC1(c2ccc3c(n2)CCCC3Oc2ccc(F)nc2)CC1)c1ccc(F)cc1` (stereo not drawn) [Example 5, 4-fluoro-N-(1-(5((6-fluoropyridin-3-yl)oxy)-5,6,7,8-tetrahydroquinolin-2-yl)cyclopropyl)benzamide], the IC50 came out at 12.4 nM.

For the compound `Cc1ccncc1OC1CCCc2nc(C3(NC(=O)c4ccc(F)cc4)CC3)ccc21` (stereo not drawn) [Example 6, 4-fluoro-N-(1-(5((4-methylpyridin-3-yl)oxy)-5,6,7,8-tetrahydroquinolin-2-yl)cyclopropyl)benzamide], the half-maximal inhibitory concentration (IC50) stood at 9.96 nM.

For `O=C(NC1(c2ccc3c(n2)CCCC3Oc2cncc(Cl)c2)CC1)c1ccc(F)cc1` (stereo not drawn) [Example 7, N-(1-(5-((5-chloropyridin-3-yl)oxy)-5,6,7,8-tetrahydroquinolin-2-yl)cyclopropyl)-4-fluorobenzamide], the half-inhibitory concentration (IC50) is 5.32 nM.

For the compound `N#Cc1cccc(OC2CCCc3nc(C4(NC(=O)c5ccc(F)cc5)CC4)ccc32)c1` (stereo not drawn) [Example 8, N-(1-(5-(3-cyanophenoxy)-5,6,7,8-tetrahydroquinolin-2-yl)cyclopropyl)-4-fluorobenzamide], the IC50 amounted to 2.16 nM.

With `O=C(NC1(c2ccc3c(n2)CCCC3Oc2ccc(F)nc2)CC1)c1ccc(F)cc1` (stereo not drawn) [Example 9, 4-fluoro-N-(1-(5((6-fluoropyridin-3-yl)oxy)-5,6,7,8-tetrahydroquinolin-2-yl)cyclopropyL)benzamide], the IC50 was determined as 24.4 nM.

As for `Cc1ccncc1OC1CCCc2nc(C3(NC(=O)c4ccc(F)cc4)CC3)ccc21` (stereo not drawn) [Example 10, 4-fluoro-N-(1-(5-((4-methylpyridin-3-yl)oxy)-5,6,7,8-tetrahydroquinolin-2-yl)cyclopropyl)benzamide], the IC50 turned out to be 108 nM.

On to `O=C(NC1(c2ccc3c(n2)CCCC3Oc2cncc(Cl)c2)CC1)c1ccc(F)cc1` (stereo not drawn) [Example 11, N-(1-(5-((5-chloropyridin-3-yl)oxy)-5,6,7,8-tetrahydroquinolin-2-yl)cyclopropyl)-4-fluorobenzamide], for which the IC50 worked out at 3.96 nM.

For the compound `N#Cc1cccc(OC2CCCc3nc(C4(NC(=O)c5ccc(F)cc5)CC4)ccc32)c1` (stereo not drawn) [Example 12, N-(1-(5-(3-cyanophenoxy)-5,6,7,8-tetrahydroquinolin-2-yl)cyclopropyl)-4-fluorobenzamide], the 50% inhibitory concentration (IC50) worked out at 5.69 nM.

`Cc1ncc(OC2CCCc3nc(C4(NC(=O)c5ccc(F)cc5)CC4)ccc32)cn1` (stereo not drawn) [Example 13, 4-fluoro-N-(1-(5-((2-methylpyrimidin-5-yl)oxy)-5,6,7,8-tetrahydroquinolin-2-yl)cyclopropyl)benzamide]: the IC50 worked out at 44.5 nM.

In the case of `CN(C)c1ncc(OC2CCCc3nc(C4(NC(=O)c5ccc(F)cc5)CC4)ccc32)cn1` (stereo not drawn) [Example 14, N-(1-(5-((2-(dimethylamino)pyrimidin-5-yl)oxy)-5,6,7,8-tetrahydroquinolin-2-yl)cyclopropyl)-4-fluorobenzamide], the IC50 worked out at 81.4 nM.

With `Cc1ncc(OC2CCCc3nc(C4(NC(=O)c5ccc(F)cc5)CC4)ccc32)cn1` (stereo not drawn) [Example 15, 4-fluoro-N-(1-(5-((2-methylpyrimidin-5-yl)oxy)-5,6,7,8-tetrahydroquinolin-2-yl)cyclopropyl)benzamide], the IC50 amounted to 130 nM.

Take `O=C(NC1(c2ccc3c(n2)CCCC3Nc2cccc(Cl)c2)CC1)c1ccc(F)cc1` (stereo not drawn) [Example 16, N-(1-(5-((3-chlorophenyl)amino)-5,6,7,8-tetrahydroquinolin-2-yl)cyclopropyl)-4-fluorobenzamide]: the half-maximal inhibitory concentration (IC50) was 13.9 nM.

Turning to `O=C(NC1(c2ccc3c(n2)CCCC3Nc2cccc(Cl)c2)CC1)c1ccc(F)cc1` (stereo not drawn) [Example 17, N-(1-(5-((3-chlorophenyl)amino)-5,6,7,8-tetrahydroquinolin-2-yl)cyclopropyl)-4-fluorobenzamide], the IC50 amounted to 38.2 nM.

With `O=C(NC1(c2ccc3c(n2)CCCC3OCC2CC2)CC1)c1ccc(F)cc1` (stereo not drawn) [Example 18, N-(1-(5-(cyclopropylmethoxy)-5,6,7,8-tetrahydroquinolin-2-yl)cyclopropyl)-4-fluorobenzamide], the IC50 is 58.6 nM.

As to `Cc1nccc(C2CCCc3nc(C4(NC(=O)c5ccc(F)cc5)CC4)ccc32)n1` (stereo not drawn) [Example 21, 4-Fluoro-N-(1-(5-(2-methylpyrimidin-4-yl)-5,6,7,8-tetrahydroquinolin-2-yl)cyclopropyl)benzamide], the IC50 amounted to 25 nM.

As to `O=C(NC1(c2ccc3c(n2)CCCC3c2cncc(F)c2)CC1)c1ccc(F)cc1` (stereo not drawn) [Example 24, 4-Fluoro-N-(1-(5-(5-fluoropyridin-3-yl)-5,6,7,8-tetrahydroquinolin-2-yl)cyclopropyl)benzamide], the IC50 worked out at 384 nM.

Take `CCC(NC(=O)c1ccc(F)cc1)c1ccc2c(n1)CCCC2c1cncc(F)c1` (stereo not drawn) [Example 25, 4-fluoro-N-(1-(5-(5-fluoropyridin-3-yl)-5,6,7,8-tetrahydroquinolin-2-yl)propyl)benzamide]: the 50% inhibitory concentration (IC50) came out at 2190 nM.

For `Cc1cncc(C2CCCc3nc(C4(NC(=O)c5ccc(F)cc5)CC4)ccc32)c1` (stereo not drawn) [Example 26, 4-fluoro-N-(1-(5-(5-methylpyridin-3-yl)-5,6,7,8-tetrahydroquinolin-2-yl)cyclopropyl)benzamide], the concentration for half-maximal inhibition (IC50) was 183 nM.

Turning to `CCC(NC(=O)c1ccc(F)cc1)c1ccc2c(n1)CCCC2c1cncc(C)c1` (stereo not drawn) [Example 27, 4-fluoro-N-(1-(5-(5-methylpyridin-3-yl)-5,6,7,8-tetrahydroquinolin-2-yl)propyl)benzamide], the IC50 is 643 nM.

For the compound `O=C(NC1(c2ccc3c(n2)CCCC3c2cncc(C(F)(F)F)c2)CC1)c1ccc(F)cc1` (stereo not drawn) [Example 28, 4-fluoro-N-(1-(5-(5-(trifluoromethyl)pyridin-3-yl)-5,6,7,8-tetrahydroquinolin-2-yl)cyclopropyl)benzamide], the 50% inhibitory concentration (IC50) was 212 nM.

As to `CCC(NC(=O)c1ccc(F)cc1)c1ccc2c(n1)CCCC2c1cncc(C(F)(F)F)c1` (stereo not drawn) [Example 29, 4-fluoro-N-(1-(5-(5-(trifluoromethyl)pyridin-3-yl)-5,6,7,8-tetrahydroquinolin-2-yl)propyl)benzamide], the half-maximal inhibitory concentration (IC50) came out at 854 nM.

For `Cc1ncc(C2CCCc3nc(C4(NC(=O)c5ccc(F)cc5)CC4)ccc32)cn1` (stereo not drawn) [Example 30, 4-fluoro-N-(1-(5-(2-methylpyrimidin-5-yl)-5,6,7,8-tetrahydroquinolin-2-yl)cyclopropyl)benzamide], the IC50 is 1420 nM.
